Experiment [1] addresses T1, α9 nAChR (Homo sapiens, UniProt Q9UGM1).
T1 construct: gene CHRNA9
The experiment can be described thus: two-electrode voltage clamp, Xenopus oocytes, concentration-response (partial agonist). It is filed as cell-based.

The target of experiment [2] is T2, α9α10 nAChR (Homo sapiens, UniProt Q9GZZ6+Q9UGM1).
T2 construct: gene CHRNA9; with nAChR subunit α10 (CHRNA10)
The experiment is described as above. It is filed as cell-based.

What is called EC50 is the midpoint of the concentration-response curve.

T2 sequence (Q9UGM1 23-479): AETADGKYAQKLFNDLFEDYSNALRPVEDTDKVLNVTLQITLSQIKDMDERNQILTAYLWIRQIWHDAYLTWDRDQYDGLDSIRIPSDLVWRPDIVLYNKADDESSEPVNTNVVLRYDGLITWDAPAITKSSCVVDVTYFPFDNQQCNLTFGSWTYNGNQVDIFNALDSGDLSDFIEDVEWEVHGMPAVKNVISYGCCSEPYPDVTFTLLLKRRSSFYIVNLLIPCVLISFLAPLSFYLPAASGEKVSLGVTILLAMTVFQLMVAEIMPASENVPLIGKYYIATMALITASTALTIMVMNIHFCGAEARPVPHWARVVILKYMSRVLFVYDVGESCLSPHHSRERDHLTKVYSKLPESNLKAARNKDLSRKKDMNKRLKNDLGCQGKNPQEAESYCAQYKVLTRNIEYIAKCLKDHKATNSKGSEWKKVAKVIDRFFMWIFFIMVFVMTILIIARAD
T2 sequence (Q9GZZ6 25-450): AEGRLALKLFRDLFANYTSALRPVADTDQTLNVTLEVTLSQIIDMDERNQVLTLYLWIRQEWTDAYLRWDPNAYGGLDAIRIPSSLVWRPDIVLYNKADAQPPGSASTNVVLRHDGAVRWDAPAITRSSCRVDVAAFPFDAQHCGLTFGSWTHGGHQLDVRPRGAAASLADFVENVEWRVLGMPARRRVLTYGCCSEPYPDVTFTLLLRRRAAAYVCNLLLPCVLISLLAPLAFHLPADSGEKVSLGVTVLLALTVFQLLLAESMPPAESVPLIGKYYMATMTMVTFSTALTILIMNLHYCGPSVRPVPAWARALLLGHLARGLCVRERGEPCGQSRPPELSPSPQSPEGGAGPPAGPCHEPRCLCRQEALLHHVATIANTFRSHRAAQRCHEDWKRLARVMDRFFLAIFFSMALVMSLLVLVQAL
T1 sequence (Q9UGM1 23-479): as the sequence (Q9UGM1 23-479) above

Take `CC[N+]1(CC)CCN(c2ccc(C(F)(F)F)cc2)CC1` [pCF3-diEPP]: the results for the concentration giving a half-maximal response (EC50) in experiment [1] and in experiment [2] were 7 µM and 6.4 µM, respectively.

Source of the values: publication PMC9008208 (Frontiers in Cellular Neuroscience, 2022).
